Test results: ChEMBL document CHEMBL1142926, “A new modification of anti-tubercular active molecules” (Bioorg Med Chem, 2007); call rule not given here
Converted amounts (≈) assume the structure as drawn.

Columns and labels:
Mycobacterium kansasii [1] = assay: Antimycobacterial activity against Mycobacterium kansasii 235/80 after 7 days; assay type: functional; details: 168 h
Mycobacterium kansasii [2] = assay: Antimycobacterial activity against Mycobacterium kansasii 6509/96 after 7 days; assay type: functional; details: 168 h
Mycobacterium kansasii [3] = assay: Antimycobacterial activity against Mycobacterium kansasii 6509/96 after 21 days; assay type: functional; details: 504 h
Mycobacterium avium [4] = assay: Antimycobacterial activity against Mycobacterium avium 330/88 after 14 days; assay type: functional; details: 336 h
[5] = Lipophilicity, log K of the compound; assay type: physicochemical; details: octanol/water
[6] = test system: Mycobacterium tuberculosis; assay: Antimycobacterial activity against Mycobacterium tuberculosis 331/88 after 14 days; assay type: functional; details: 336 h
[7] = test system: Mycobacterium tuberculosis; assay: Antimycobacterial activity against Mycobacterium tuberculosis H37Rv; assay type: functional, organism-based
Mycobacterium kansasii [8] = assay: Antimycobacterial activity against Mycobacterium kansasii 235/80 after 14 days; assay type: functional; details: 336 h
[9] = test system: Mycobacterium tuberculosis; assay: Antimycobacterial activity against Mycobacterium tuberculosis 331/88 after 21 days; assay type: functional; details: 504 h
[10] = test system: Mycobacterium tuberculosis; assay: Antimycobacterial activity against Mycobacterium tuberculosis H37Rv at 6.25 ug/mL; assay type: functional
Mycobacterium kansasii [11] = assay: Antimycobacterial activity against Mycobacterium kansasii 235/80 after 21 days; assay type: functional; details: 504 h
Mycobacterium kansasii [12] = assay: Antimycobacterial activity against Mycobacterium kansasii 6509/96 after 14 days; assay type: functional; details: 336 h
Mycobacterium avium [13] = assay: Antimycobacterial activity against Mycobacterium avium 330/88 after 21 days; assay type: functional; details: 504 h
[14] = Stability after 7 days; assay type: physicochemical; details: read-out: Stability
[15] = Stability after 21 days; assay type: physicochemical; details: read-out: Stability
[16] = Stability after 14 days; assay type: physicochemical; details: read-out: Stability
[17] = Stability within 7 days; assay type: physicochemical; details: 168 h

SMILES	MIC (Mycobacterium kansasii [1]) [µM]	MIC (Mycobacterium kansasii [2]) [µM]	MIC (Mycobacterium kansasii [3]) [µM]	MIC (Mycobacterium avium [4]) [µM]	log K [5]	MIC [6] [µM]	MIC [7] [µg/mL]	MIC (Mycobacterium kansasii [8]) [µM]	MIC [9] [µM]	inhibition at 6.25 µg/mL [10] [%]	MIC (Mycobacterium kansasii [11]) [µM]	MIC (Mycobacterium kansasii [12]) [µM]	MIC (Mycobacterium avium [13]) [µM]	IC50 [7] [µg/mL]	remaining at 168 h [14] [%]	remaining at 504 h [15] [%]	remaining at 336 h [16] [%]	Activity [17]
CCC(CO)N1CCN(C(CC)CO)C1OS(=O)(=O)c1ccc(C)cc1 (centres undefined)	500 (≈ 193 µg/mL)	250 (≈ 96.6 µg/mL)	1000 (≈ 387 µg/mL)	500 (≈ 193 µg/mL)	0.243	250 (≈ 96.6 µg/mL)	> 6.25	1000 (≈ 387 µg/mL)	500 (≈ 193 µg/mL)	0	1000 (≈ 387 µg/mL)	500 (≈ 193 µg/mL)	1000 (≈ 387 µg/mL)					
CN(C)/C=N/C(=O)c1cnccn1					0.1718		> 6.25			1								
O=C(N/N=C/N1CCOCC1)c1ccncc1					0.2653		> 6.25			74								
O=C(N/N=C/NCc1ccccn1)c1ccncc1	1000 (≈ 255 µg/mL)	62.5 (≈ 16 µg/mL)	125 (≈ 31.9 µg/mL)	1000 (≈ 255 µg/mL)	0.3343	16 (≈ 4.08 µg/mL)	6.25 (≈ 24.5 µM)	1000 (≈ 255 µg/mL)	32 (≈ 8.17 µg/mL)	92	1000 (≈ 255 µg/mL)	125 (≈ 31.9 µg/mL)	> 1000	> 10				
O=C(N/N=C/NCc1ccccc1)c1ccncc1	500 (≈ 127 µg/mL)	125 (≈ 31.8 µg/mL)	250 (≈ 63.6 µg/mL)	1000 (≈ 254 µg/mL)	0.5426	32 (≈ 8.14 µg/mL)	> 6.25	1000 (≈ 254 µg/mL)	65.5 (≈ 16.7 µg/mL)	93	1000 (≈ 254 µg/mL)	250 (≈ 63.6 µg/mL)	> 1000	> 10				
O=C(N/N=C\N1CCN(c2cc3c(cc2F)c(=O)c(C(=O)O)cn3C2CC2)CC1)c1ccncc1	2 (≈ 0.957 µg/mL)	2 (≈ 0.957 µg/mL)	8 (≈ 3.83 µg/mL)	125 (≈ 59.8 µg/mL)	0.9159	2 (≈ 0.957 µg/mL)	3.13 (≈ 6.54 µM)	4 (≈ 1.91 µg/mL)	4 (≈ 1.91 µg/mL)	99	8 (≈ 3.83 µg/mL)	4 (≈ 1.91 µg/mL)	250 (≈ 120 µg/mL)		30	3	10	
O=C(N/N=C/NNC(=O)c1ccncc1)c1ccncc1					0.3027		0.39 (≈ 1.37 µM)			96				> 62.5	19	1	4	
O=C(NN/C=N/C(=O)c1cnccn1)c1ccncc1	500 (≈ 135 µg/mL)	8 (≈ 2.16 µg/mL)	16 (≈ 4.32 µg/mL)	125 (≈ 33.8 µg/mL)	0.3562	4 (≈ 1.08 µg/mL)	0.1 (≈ 0.37 µM)	1000 (≈ 270 µg/mL)	8 (≈ 2.16 µg/mL)	94	1000 (≈ 270 µg/mL)	8 (≈ 2.16 µg/mL)	125 (≈ 33.8 µg/mL)	> 10				Not Active
CN(C)/C=N/NC(=O)c1ccncc1	250 (≈ 48.1 µg/mL)	125 (≈ 24 µg/mL)	500 (≈ 96.1 µg/mL)	1000 (≈ 192 µg/mL)	0.252	16 (≈ 3.08 µg/mL)	> 6.25	500 (≈ 96.1 µg/mL)	16 (≈ 3.08 µg/mL)	1	1000 (≈ 192 µg/mL)	250 (≈ 48.1 µg/mL)	> 1000					
O=C(N/N=C/Nc1ccc(C(=O)O)c(O)c1)c1ccncc1	500 (≈ 150 µg/mL)	125 (≈ 37.5 µg/mL)	250 (≈ 75.1 µg/mL)	125 (≈ 37.5 µg/mL)	0.366	4 (≈ 1.2 µg/mL)	0.39 (≈ 1.3 µM)	1000 (≈ 300 µg/mL)	8 (≈ 2.4 µg/mL)	96	1000 (≈ 300 µg/mL)	250 (≈ 75.1 µg/mL)	125 (≈ 37.5 µg/mL)	> 62.5				Not Active
O=C(/N=C/Nc1ccc(C(=O)O)c(O)c1)c1cnccn1	16 (≈ 4.58 µg/mL)	8 (≈ 2.29 µg/mL)	32 (≈ 9.16 µg/mL)	32 (≈ 9.16 µg/mL)	0.3695	8 (≈ 2.29 µg/mL)	3.13 (≈ 10.9 µM)	32 (≈ 9.16 µg/mL)	16 (≈ 4.58 µg/mL)	98	32 (≈ 9.16 µg/mL)	16 (≈ 4.58 µg/mL)	62.5 (≈ 17.9 µg/mL)	> 10	10	0.1	1	
O=C(/N=C/N1CCN(c2cc3c(cc2F)c(=O)c(C(=O)O)cn3C2CC2)CC1)c1cnccn1	1 (≈ 0.464 µg/mL)	2 (≈ 0.929 µg/mL)	4 (≈ 1.86 µg/mL)	62.5 (≈ 29 µg/mL)	0.97	2 (≈ 0.929 µg/mL)	0.78 (≈ 1.68 µM)	2 (≈ 0.929 µg/mL)	4 (≈ 1.86 µg/mL)	100	4 (≈ 1.86 µg/mL)	2 (≈ 0.929 µg/mL)	125 (≈ 58.1 µg/mL)	> 10				Not Active
O=C(O)c1cn(C2CC2)c2cc(N3CCNCC3)c(F)cc2c1=O [CIPROFLOXACIN]						16 (≈ 5.3 µg/mL)	2 (≈ 6.04 µM)			98				> 10				
NNC(=O)c1ccncc1 [ISONIAZID]	> 250	2 (≈ 0.274 µg/mL)	4 (≈ 0.549 µg/mL)	> 250		1 (≈ 0.137 µg/mL)	0.025 (≈ 0.182 µM)	> 250	1 (≈ 0.137 µg/mL)		> 250	4 (≈ 0.549 µg/mL)	> 250	> 100				
NC(=O)c1cnccn1 [PYRAZINAMIDE]	> 128			> 128		8 (≈ 0.985 µg/mL)	6 (≈ 48.7 µM)	> 128	8 (≈ 0.985 µg/mL)		> 128		> 128					
